Data reported in BindingDB's records for doi:10.1111/j.1476-5381.1981.tb10994.x (Royal Postgraduate Medical School, 1981).
“And” between values parts separate entries of the source, which are not always exact repeats. Equal entries are not always repeated.

Target: Prostacyclin receptor (Homo sapiens, UniProt P43119)
Sequence (P43119 whole entry): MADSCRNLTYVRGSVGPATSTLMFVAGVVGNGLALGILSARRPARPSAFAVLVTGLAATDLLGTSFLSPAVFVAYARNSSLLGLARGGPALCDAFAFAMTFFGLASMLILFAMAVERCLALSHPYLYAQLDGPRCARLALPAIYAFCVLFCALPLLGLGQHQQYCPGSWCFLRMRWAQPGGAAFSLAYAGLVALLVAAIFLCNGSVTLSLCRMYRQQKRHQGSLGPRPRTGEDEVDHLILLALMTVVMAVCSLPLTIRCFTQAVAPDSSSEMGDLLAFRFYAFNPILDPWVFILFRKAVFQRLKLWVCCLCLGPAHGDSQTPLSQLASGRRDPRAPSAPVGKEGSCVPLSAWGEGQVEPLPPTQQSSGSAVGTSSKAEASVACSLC

| SMILES | Ki |
| --- | --- |
| O=C(O)CCC/C=C\C[C@H]1C(=O)C[C@@H](O)[C@@H]1/C=C/[C@@H](O)CCc1ccccc1 [17-PHENYL TRINOR PROSTAGLANDIN E2] | 4.37 µM |
| CCCCC[C@@H](O)/C=C/[C@H]1[C@H](O)CC(=O)[C@@H]1CCCCCCC(=O)O | 0.137 µM |
| CCCCC[C@H](O)/C=C/C1[C@H](O)C[C@H](O)[C@@H]1C/C=C\CCCC(=O)O (stereo partly drawn) [(Z)-7-[(1R,3R,5S)-3,5-Dihydroxy-2-((E)-(S)-3-hydroxy-oct-1-enyl)-cyclopentyl]-hept-5-enoic acid] | > 10 µM |
| CCCCCC(=O)CC[C@H]1[C@H](O)CC(=O)[C@@H]1C/C=C\CCCC(=O)O [13,14-DIHYDRO-15-KETO PROSTAGLANDIN E2] | 8.41 µM and > 10 µM |
| CCCCC[C@H](O)/C=C/[C@H]1[C@H](O)CC(=O)[C@@H]1C/C=C/CCCC(=O)O [(E)-7-((1R,2R,3R)-3-hydroxy-2-((S,E)-3-hydroxyoct-1-enyl)-5-oxocyclopentyl)hept-5-enoic acid] | 0.735 µM |
| CCCCC[C@H](O)/C=C/[C@@H]1[C@H]2C/C(=C\CCCC(=O)O)C[C@H]2C[C@H]1O | 0.0166 µM |
| CCCCC[C@@H](O)/C=C/[C@H]1[C@H](O)CC(=O)[C@@H]1C/C=C\CCCC(=O)O | > 10 µM |
| CCCCC[C@H](O)/C=C/C1[C@H](O)CC(=O)[C@H]1CCCCCCC(=O)O (stereo partly drawn) [8-ISO PROSTAGLANDIN E1] | 0.735 µM |
| CCCCC[C@H](O)/C=C/[C@@H]1[C@@H](CC(=O)CCC(=O)O)[C@@H](O)C[C@H]1O [2,3-dinor-6-ketoprostaglandin F1alpha] | > 10 µM |

The next lines start with the values.

| Ki | SMILES |
| --- | --- |
| 0.315 µM | CCCCC[C@H](O)CC[C@H]1[C@H](O)CC(=O)[C@@H]1CCCCCCC(=O)O [CAS_19313-28-1] |
| > 10 µM | CCCCCC(O)C=CC1C(O)CC(O)C1CCCCCCC(=O)O (stereo not drawn) [NSC_5280939] |
| 7.35 µM | CCCCCC(O)C=CC1C(O)CC2OC(CCCCC(=O)O)CC21 (stereo not drawn) [CAS_162981] |
| > 10 µM | CCCCC[C@H](O)/C=C/[C@H]1[C@H](O)CC(=O)[C@@H]1C/C=C\CCCC(=O)O [DINOPROSTONE] |
